Reference: ChEMBL document CHEMBL3044868, “Effect of pre-sowing and pre-emergence glyphosate applications on weedsin stale seedbed cotton” (2009)

Columns and labels:
Format in all cases: functional
Gossypium hirsutum [1] = test: Increase of plant height in Gossypium hirsutum (cotton) at 2.88 kg a.i./ha as pre-emergence treatment 3 to 4 days after sowing without seedbed preparation measured during harvest time
Gossypium hirsutum [2] = test: Increase of cotton cover in Gossypium hirsutum (cotton) at 2.88 kg a.i./ha as pre-emergence treatment 3 to 4 days after sowing without seedbed preparation measured 2 weeks after emergence
Gossypium hirsutum [3] = test: Increase of seed cotton yield in Gossypium hirsutum (cotton) at 2.88 kg a.i./ha as pre-emergence treatment 3 to 4 days after sowing with seedbed preparation measured during harvest time
Gossypium hirsutum [4] = test: Increase of plant height in Gossypium hirsutum (cotton) at 2.88 kg a.i./ha as pre-emergence treatment 3 to 4 days after sowing with seedbed preparation measured during harvest time
Gossypium hirsutum [5] = test: Increase of seed cotton yield in Gossypium hirsutum (cotton) at 2.88 kg a.i./ha sprayed at 2 to 3 days before sowing without seedbed preparation measured during harvest time
Gossypium hirsutum [6] = test: Increase of boll weight in Gossypium hirsutum (cotton) at 2.88 kg a.i./ha sprayed at 2 to 3 days before sowing without seedbed preparation measured during harvest time
Gossypium hirsutum [7] = test: Increase of plant height in Gossypium hirsutum (cotton) at 2.88 kg a.i./ha sprayed at 2 to 3 days before sowing without seedbed preparation measured during harvest time
Gossypium hirsutum [8] = test: Increase of cotton cover in Gossypium hirsutum (cotton) at 2.88 kg a.i./ha as pre-emergence treatment 3 to 4 days after sowing with seedbed preparation measured 2 weeks after emergence
Gossypium hirsutum [9] = test: Increase of boll weight in Gossypium hirsutum (cotton) at 2.88 kg a.i./ha as pre-emergence treatment 3 to 4 days after sowing with seedbed preparation measured during harvest time
Gossypium hirsutum [10] = test: Increase of cotton cover in Gossypium hirsutum (cotton) at 2.88 kg a.i./ha sprayed at 2 to 3 days before sowing without seedbed preparation measured 2 weeks after emergence
Gossypium hirsutum [11] = test: Increase of boll weight in Gossypium hirsutum (cotton) at 2.88 kg a.i./ha as pre-emergence treatment 3 to 4 days after sowing without seedbed preparation measured during harvest time
Gossypium hirsutum [12] = test: Increase of seed cotton yield in Gossypium hirsutum (cotton) at 2.88 kg a.i./ha as pre-emergence treatment 3 to 4 days after sowing without seedbed preparation measured during harvest time

O=C(O)CNCP(=O)(O)O [GLYPHOSATE]
Activity (Gossypium hirsutum [1]): 91.1 cm | Activity (Gossypium hirsutum [2]): 16.3% | Crop_yield (Gossypium hirsutum [3]): 4.8 tons/ha | Activity (Gossypium hirsutum [4]): 91.5 cm | Crop_yield (Gossypium hirsutum [5]): 6 tons/ha | Activity (Gossypium hirsutum [6]): 5.2 g | Activity (Gossypium hirsutum [7]): 90.7 cm | Activity (Gossypium hirsutum [8]): 7% | Activity (Gossypium hirsutum [9]): 4.3 g | Activity (Gossypium hirsutum [10]): 11.7% | Activity (Gossypium hirsutum [11]): 5.9 g | Crop_yield (Gossypium hirsutum [12]): 5.5 tons/ha
